From ChEMBL document CHEMBL1124314, “Development of phosphonate derivatives of gadolinium chelates for NMR imaging of calcified soft tissues” (J Med Chem, 1989)

Tests used:
Rattus norvegicus [1] = organism: Rattus norvegicus; assay: Biodistribution in rat bone in the presence of GdDTPA at 30 min; assay type: ADME, organism-based, Bone element; details: in vivo, 0.5 h
Rattus norvegicus [2] = organism: Rattus norvegicus; assay: Biodistribution in rat bone in the presence of GdDTPA at 4 hr; assay type: ADME, organism-based, Bone element; details: in vivo
Rattus norvegicus [3] = organism: Rattus norvegicus; assay: Biodistribution in rat bone in the presence of GdDTPA-BDP at 1 hr; assay type: ADME, organism-based, Bone element; details: in vivo
Rattus norvegicus [4] = organism: Rattus norvegicus; assay: Biodistribution in rat bone in the presence of GdDTPA-BDP at 4 hr; assay type: ADME, organism-based, Bone element; details: in vivo
Rattus norvegicus [5] = organism: Rattus norvegicus; assay: Biodistribution in rat bone in the presence of GdDTPA-HPDP at 15 min; assay type: ADME, organism-based, Bone element; details: in vivo, 0.25 h
Rattus norvegicus [6] = organism: Rattus norvegicus; assay: Biodistribution in rat bone in the presence of GdDTPA-HPDP at 30 min; assay type: ADME, organism-based, Bone element; details: in vivo, 0.5 h
Rattus norvegicus [7] = organism: Rattus norvegicus; assay: Biodistribution in rat bone in the presence of GdDTPA-HPDP at 4 hr; assay type: ADME, organism-based, Bone element; details: in vivo
Rattus norvegicus [8] = organism: Rattus norvegicus; assay: Biodistribution in rat heart in the presence of 0.01 M Gd/0.01 M GdDTPA-AEP; assay type: ADME, organism-based; details: in vivo
Rattus norvegicus [9] = organism: Rattus norvegicus; assay: Biodistribution in rat heart in the presence of 0.01 M GdDTPA-BDP; assay type: ADME, organism-based; details: in vivo
Rattus norvegicus [10] = organism: Rattus norvegicus; assay: Biodistribution in rat heart in the presence of 0.05 M /0.05 M GdDTPA-AEP; assay type: ADME, organism-based; details: in vivo
Rattus norvegicus [11] = organism: Rattus norvegicus; assay: Biodistribution in rat heart in the presence of 0.05 M/0.08 M GdDTPA-HPDP; assay type: ADME, organism-based; details: in vivo
Rattus norvegicus [12] = organism: Rattus norvegicus; assay: Biodistribution in rat heart in the presence of GdDTPA-BDP at 30 min; assay type: ADME, organism-based; details: in vivo, 0.5 h
Rattus norvegicus [13] = organism: Rattus norvegicus; assay: Biodistribution in rat heart in the presence of GdDTPA-HPDP at 4 hr; assay type: ADME, organism-based; details: in vivo
Rattus norvegicus [14] = organism: Rattus norvegicus; assay: Biodistribution in rat kidney in the presence of 0.01 M GdDTPA-BDP; assay type: ADME, organism-based; details: in vivo
Rattus norvegicus [15] = organism: Rattus norvegicus; assay: Biodistribution in rat kidney in the presence of 0.05 M/0.08 M GdDTPA-HPDP; assay type: ADME, organism-based; details: in vivo
Rattus norvegicus [16] = organism: Rattus norvegicus; assay: Biodistribution in rat liver in the presence of GdDTPA-HPDP at 30 min; assay type: ADME, organism-based; details: in vivo, 0.5 h
Rattus norvegicus [17] = organism: Rattus norvegicus; assay: Biodistribution in rat liver in the presence of NAC Gd/0.01 M GdDTPA-HPDP; assay type: ADME, organism-based; details: in vivo
Rattus norvegicus [18] = organism: Rattus norvegicus; assay: Biodistribution in rat muscle in the presence of 0.01 M GdDTPA-BDP; assay type: ADME, organism-based, Muscle tissue; details: in vivo
Rattus norvegicus [19] = organism: Rattus norvegicus; assay: Biodistribution in rat muscle in the presence of 0.05 M GdDTPA-BDP; assay type: ADME, organism-based, Muscle tissue; details: in vivo
Rattus norvegicus [20] = organism: Rattus norvegicus; assay: Biodistribution in rat muscle in the presence of 0.10 M GdDTPA-BDP; assay type: ADME, organism-based, Muscle tissue; details: in vivo
Rattus norvegicus [21] = organism: Rattus norvegicus; assay: Biodistribution in rat muscle in the presence of GdDTPA-BDP at 1 hr; assay type: ADME, organism-based, Muscle tissue; details: in vivo
Rattus norvegicus [22] = organism: Rattus norvegicus; assay: Biodistribution in rat muscle in the presence of GdDTPA-BDPat 15 min; assay type: ADME, organism-based, Muscle tissue; details: in vivo, 0.25 h
Rattus norvegicus [23] = organism: Rattus norvegicus; assay: Biodistribution in rat muscle in the presence of GdDTPA-HPDP at 1 hr; assay type: ADME, organism-based, Muscle tissue; details: in vivo
Rattus norvegicus [24] = organism: Rattus norvegicus; assay: Biodistribution in rat muscle in the presence of GdDTPA-HPDPat 30 min; assay type: ADME, organism-based, Muscle tissue; details: in vivo, 0.5 h
Rattus norvegicus [25] = organism: Rattus norvegicus; assay: Biodistribution in rat spleen in the presence of 0.01 M GdDTPA-BDP; assay type: ADME, organism-based; details: in vivo
Rattus norvegicus [26] = organism: Rattus norvegicus; assay: Biodistribution in rat spleen in the presence of 0.10 M GdDTPA-BDP; assay type: ADME, organism-based; details: in vivo
Rattus norvegicus [27] = organism: Rattus norvegicus; assay: Biodistribution in rat liver in the presence of 0.001 M/0.008 M GdDTPA-AEP; assay type: ADME, organism-based; details: in vivo
Rattus norvegicus [28] = organism: Rattus norvegicus; assay: Biodistribution in rat liver in the presence of 0.01 M/0.01 M GdDTPA-AEP; assay type: ADME, organism-based; details: in vivo
Rattus norvegicus [29] = organism: Rattus norvegicus; assay: Biodistribution in rat liver in the presence of 0.05 M GdDTPA-BDP; assay type: ADME, organism-based; details: in vivo
Rattus norvegicus [30] = organism: Rattus norvegicus; assay: Biodistribution in rat liver in the presence of GdDTPA at 15 min; assay type: ADME, organism-based; details: in vivo, 0.25 h
Rattus norvegicus [31] = organism: Rattus norvegicus; assay: Biodistribution in rat liver in the presence of GdDTPA at 30 min; assay type: ADME, organism-based; details: in vivo, 0.5 h
Rattus norvegicus [32] = organism: Rattus norvegicus; assay: Biodistribution in rat blood in the presence of GdDTPA-BDP at 4 hr; assay type: ADME, organism-based; details: in vivo
Rattus norvegicus [33] = organism: Rattus norvegicus; assay: Biodistribution in rat blood in the presence of GdDTPA-BDPat 1 hr; assay type: ADME, organism-based; details: in vivo
Rattus norvegicus [34] = organism: Rattus norvegicus; assay: Biodistribution in rat blood in the presence of GdDTPA-HPDP at 30 min; assay type: ADME, organism-based; details: in vivo, 0.5 h
Rattus norvegicus [35] = organism: Rattus norvegicus; assay: Biodistribution in rat blood in the presence of GdDTPA-HPDP at 4 hr; assay type: ADME, organism-based; details: in vivo
Rattus norvegicus [36] = organism: Rattus norvegicus; assay: Biodistribution in rat blood in the presence of GdDTPA-HPDPat 1 hr; assay type: ADME, organism-based; details: in vivo
Rattus norvegicus [37] = organism: Rattus norvegicus; assay: Biodistribution in rat bone in the presence of 0.01 M GdDTPA-BDP; assay type: ADME, organism-based, Bone element; details: in vivo
Rattus norvegicus [38] = organism: Rattus norvegicus; assay: Biodistribution in rat bone in the presence of 0.05 M/0.05 M GdDTPA-AEP; assay type: ADME, organism-based, Bone element; details: in vivo
Rattus norvegicus [39] = organism: Rattus norvegicus; assay: Biodistribution in rat bone in the presence of 0.05 M/0.08 M GdDTPA-HPDP; assay type: ADME, organism-based, Bone element; details: in vivo
Rattus norvegicus [40] = organism: Rattus norvegicus; assay: Biodistribution in rat blood in the presence of 0.001 M/0.008 M GdDTPA-AEP; assay type: ADME, organism-based; details: in vivo
Rattus norvegicus [41] = organism: Rattus norvegicus; assay: Biodistribution in rat blood in the presence of 0.01 M GdDTPA-BDP; assay type: ADME, organism-based; details: in vivo
Rattus norvegicus [42] = organism: Rattus norvegicus; assay: Biodistribution in rat blood in the presence of 0.01 M/0.01 M GdDTPA-AEP; assay type: ADME, organism-based; details: in vivo
Rattus norvegicus [43] = organism: Rattus norvegicus; assay: Biodistribution in rat blood in the presence of 0.10 M GdDTPA-BDP; assay type: ADME, organism-based; details: in vivo
Rattus norvegicus [44] = organism: Rattus norvegicus; assay: Biodistribution in rat blood in the presence of GdDTPA at 30 min; assay type: ADME, organism-based; details: in vivo, 0.5 h
Rattus norvegicus [45] = organism: Rattus norvegicus; assay: Biodistribution in rat blood in the presence of GdDTPA at 4 hr; assay type: ADME, organism-based; details: in vivo
Rattus norvegicus [46] = organism: Rattus norvegicus; assay: Biodistribution in rat liver in the presence of GdDTPA-HPDP at 1 hr; assay type: ADME, organism-based; details: in vivo
Rattus norvegicus [47] = organism: Rattus norvegicus; assay: Biodistribution in rat muscle in the presence of GdDTPA-HPDPat 15 min; assay type: ADME, organism-based, Muscle tissue; details: in vivo, 0.25 h
Rattus norvegicus [48] = organism: Rattus norvegicus; assay: Biodistribution in rat blood in the presence of 0.05 M/0.08 M GdDTPA-HPDP; assay type: ADME, organism-based; details: in vivo
Rattus norvegicus [49] = organism: Rattus norvegicus; assay: Biodistribution in rat heart in the presence of GdDTPA; details: in vivo
Rattus norvegicus [50] = organism: Rattus norvegicus; assay: Biodistribution in rat blood in the presence of GdDTPA at 20 min; details: in vivo, 0.33 h
Rattus norvegicus [51] = organism: Rattus norvegicus; assay: Biodistribution in rat bone in the presence of GdDTPA-BDP at 4 hr; details: in vivo
Rattus norvegicus [52] = organism: Rattus norvegicus; assay: Biodistribution in rat heart in the presence of GdDTPA-BDP at 2 hr; details: in vivo
Rattus norvegicus [53] = organism: Rattus norvegicus; assay: Biodistribution in rat heart in the presence of GdDTPA-BDP at 1 hr; details: in vivo
Rattus norvegicus [54] = organism: Rattus norvegicus; assay: Biodistribution in rat blood in the presence of GdDTPA-BDP at 1 hr; details: in vivo
Rattus norvegicus [55] = organism: Rattus norvegicus; assay: Biodistribution in rat bone in the presence of GdDTPA-BDP at 20 min; details: in vivo, 0.33 h
Rattus norvegicus [56] = organism: Rattus norvegicus; assay: Biodistribution in rat blood in the presence of 0.10 M/0.11 M GdDTPA-HPDP; details: in vivo

ID/organ (Rattus norvegicus [1]): 0.779%
ID/organ (Rattus norvegicus [2]): 0.287%
ID/organ (Rattus norvegicus [3]): 17.6%
ID/organ (Rattus norvegicus [4]): 18.5%
ID/organ (Rattus norvegicus [5]): 15.5%
ID/organ (Rattus norvegicus [6]): 16.8%
ID/organ (Rattus norvegicus [7]): 18.1%
ID/organ (Rattus norvegicus [8]): 0.012%
ID/organ (Rattus norvegicus [9]): 0.129%
ID/organ (Rattus norvegicus [10]): 0.016%
ID/organ (Rattus norvegicus [11]): 0.007%
ID/organ (Rattus norvegicus [12]): 17.6%
ID/organ (Rattus norvegicus [13]): 0.003%
ID/organ (Rattus norvegicus [14]): 0.476%
ID/organ (Rattus norvegicus [15]): 0.423%
ID/organ (Rattus norvegicus [16]): 0.519%
ID/organ (Rattus norvegicus [17]): 0.082%
ID/organ (Rattus norvegicus [18]): 4.38%
ID/organ (Rattus norvegicus [19]): 4.47%
ID/organ (Rattus norvegicus [20]): 3.59%
ID/organ (Rattus norvegicus [21]): 4.47%
ID/organ (Rattus norvegicus [22]): 8.97%
ID/organ (Rattus norvegicus [23]): 0.889%
ID/organ (Rattus norvegicus [24]): 4.09%
ID/organ (Rattus norvegicus [25]): 0.185%
ID/organ (Rattus norvegicus [26]): 0.013%
ID/organ (Rattus norvegicus [27]): 0.239%
ID/organ (Rattus norvegicus [28]): 18.3%
ID/organ (Rattus norvegicus [29]): 1.23%
ID/organ (Rattus norvegicus [30]): 1.59%
ID/organ (Rattus norvegicus [31]): 0.418%
ID/organ (Rattus norvegicus [32]): 2.26%
ID/organ (Rattus norvegicus [33]): 2.53%
ID/organ (Rattus norvegicus [34]): 2.46%
ID/organ (Rattus norvegicus [35]): 0.068%
ID/organ (Rattus norvegicus [36]): 0.543%
ID/organ (Rattus norvegicus [37]): 20.5%
ID/organ (Rattus norvegicus [38]): 0.483%
ID/organ (Rattus norvegicus [39]): 17.6%
ID/organ (Rattus norvegicus [40]): 0.143%
ID/organ (Rattus norvegicus [41]): 9.49%
ID/organ (Rattus norvegicus [42]): 0.503%
ID/organ (Rattus norvegicus [43]): 1.62%
ID/organ (Rattus norvegicus [44]): 1.02%
ID/organ (Rattus norvegicus [45]): 0.005%
ID/organ (Rattus norvegicus [46]): 0.201%
ID/organ (Rattus norvegicus [47]): 6.36%
ID/organ (Rattus norvegicus [48]): 0.27%
ID/organ (Rattus norvegicus [49]): 0.019%
ID/organ (Rattus norvegicus [50]): 6.03%
ID/organ (Rattus norvegicus [51]): 18.5%
ID/organ (Rattus norvegicus [52]): 0.048%
ID/organ (Rattus norvegicus [53]): 0.055%
ID/organ (Rattus norvegicus [54]): 2.74%
ID/organ (Rattus norvegicus [55]): 11%
ID/organ (Rattus norvegicus [56]): 0.19%
Compound: O=C(O)CN(CCN(CC(=O)O)CC(=O)O)CCN(CC(=O)O)CC(=O)O [PENTETIC ACID]
